From patent US20020077328A1, “Selective cyclooxygenase-2 inhibitors and vasomodulator compounds for generalized pain and headache pain” (priority 2000, published 2002) come the findings set out here.

A short description of this series: Solubility of celecoxib and valdecoxib in various solvent liquids. In kind it is physicochemical. Here is the method:
Aliquots of a solvent liquid were then added dropwise in approximately 100 mg increments to the solid sample. The resulting mixture was vortexed and/or sonicated between aliquot additions. […] Solubility values preceded by the < symbol denote that, at the particular concentration shown, the mixture was still cloudy, i.e., not all of the drug was fully in dissolved form.

Setting [1] is: Labrasol ™ /DGME/propylene glycol laurate 40:40:20 w/w.
Setting [2] is: Polyethylene glycol 400/water 1:1 w/w.
Setting [3] is: Polyethylene glycol 400/water 2:1 w/w.
The mark [4] stands for this setting: Propylene glycol laurate/Labrasol ™ 1:1 w/w.
Where [5] appears, read: Tagat ™ TO/Capmul ™ MCM 1:1 w/w.

`Cc1ccc(-c2cc(C(F)(F)F)nn2-c2ccc(S(N)(=O)=O)cc2)cc1` [celecoxib]: the Solubility reads like this: (Arlacel ™ 186) 13 mg/g; (Capmul ™ MCM) 19 − 21 mg/g; (Cremophor ™ EL) 36 mg/g; (DGME/water 1:1 w/w) 3 mg/g; (DGME/water 2:1 w/w) 42 mg/g; (Ethyl caprylate) 25 mg/g. The Solubility is on record as 64 mg/g (Labrasol ™); 335 mg/g (Labrasol ™ /DGME 1:1 w/w); 266 mg/g (Labrasol ™ /DGME/propylene glycol laurate 35:35:30 w/w); 288 − 297 mg/g under setting [1]; 313 − 325 mg/g (Labrasol ™ /DGME/propylene glycol laurate 45:45:10 w/w); 6 − 12 mg/g (Miglyol ™ 812). Further, the Solubility runs as follows: (Polyethylene glycol 400) 304 mg/g; under setting [2], below 1 mg/g; under setting [3], 6 mg/g; (Polysorbate 80) 73 mg/g; (Propylene glycol) 23 − 41 mg/g; (Propylene glycol laurate) 18 mg/g. Also, the Solubility is given as 58 mg/g under setting [4]; 212 mg/g (Tagat ™ /Capmul ™ MCM/DGME 35:35:30 w/w); 274 mg/g (Tagat ™ /Capmul ™ MCM/DGME 58:12:30 w/w); 24 − 40 mg/g (Tagat ™ TO); 34 − 52 mg/g under setting [5]; 188 mg/g (Tetraethylene glycol dimethyl ether). This compound also returned a Solubility (Triethylene glycol monoethyl ether) of 170 mg/g.
As to `Cc1onc(-c2ccccc2)c1-c1ccc(S(N)(=O)=O)cc1` [valdecoxib], the “Advantage in solubility for DGME over propylene glycol” value is “approximately tenfold”. In addition, the Solubility (Capmul ™ MCM) is given as 13 mg/g. Besides, under “DGME/water 1:1 w/w”, the Solubility is recorded as 6 mg/g. In addition, the Solubility (DGME/water 2:1 w/w) is given as 32 mg/g. In addition, under “Diethylene glycol monoethyl ether (DGME)”, the Solubility is given as 120 mg/g. The compound also had a Solubility (Labrasol ™) of 34 mg/g. Also, the Solubility under setting [1] is 130 mg/g. Besides, the Solubility (Polyethylene glycol 400) is 50 − 85 mg/g. This compound also came in with a Solubility under setting [2] of 1 mg/g. The compound also gave a Solubility under setting [3] of 13 mg/g. Also, for the setting “Propylene glycol”, the Solubility was 10 − 20 mg/g. The compound also came in with a Solubility (Propylene glycol laurate) of 22 mg/g. For the same compound, under setting [4], the Solubility was 42 mg/g. For the same compound, for the setting “Tagat ™ TO”, the Solubility came out at 23 mg/g. Under setting [5], the Solubility is recorded as 24 mg/g.
